Results taken from article PMC7835894 (Molecules, 2021).

Experiments:
Type in all cases: cell-based, human
[1] = test system: Caco-2 cells; assay: Annexin V-FITC/PI apoptosis assay (flow cytometry); details: Caco-2, IC50 concentration
Method: The ability of synthetic retinoids to induce apoptosis in one of the sensitive cancer cell lines (namely, Caco-2 cells) was detected by Annexin V-FITC and PI according to the protocol of the detection kit (Beckman Coulter, Brea, CA, USA). […] Cells were collected, washed with phosphate-buffered saline (PBS) (Lonza), and resuspended in 1 mL of binding buffer. 100 µL cell suspension was incubated with 1 µL FITC-labeled Annexin V and 5 µL PI for 15 min at 4 °C in the dark. Finally, 400 µL ice-cold binding buffer was added, and the apoptotic cells in each sample were analyzed by Beckman Coulter Epics XL flow cytometer. Apoptotic index (AI) was calculated as the number of apoptotic cell deaths expressed as a percentage from the total gated cells.

[2] = test system: Caco-2 cells; assay: Cell cycle analysis (PI, flow cytometry); details: Caco-2, IC50 of retinoid
Method: The cell cycle analysis was performed using flow cytometry (Beckman Coulter, Brea, CA, USA). […] After incubation, cells were harvested, fixed with 70% alcohol overnight, and stained with PI (50 µg/mL). DNA content was measured by Beckman Coulter Epics XL flow cytometer and G0/G1, S, and G2/M cells were gated as appropriate using Flowing Software 2.5.1 (Turko Bioimaging, Turku, Finland).

[3] = test system: cleaved Cas-3; assay: Western blotting in Caco-2 cells; details: Caco-2, IC50 dose, 24 h, normalized to β-actin
Method: The expression of Bax, Bcl-2, Cyt-C, cleaved cas-3 and p53 proteins in Caco-2 cells was determined using Western blot procedure according to the methods mentioned previously. […] Then, cells were lysed in 150 µL pre-cold lysis buffer [Tris-Base “10 mM”, NaCl “100 mM”, Ethylene glycol bis (2-aminoethyl) tetraacetic acid (EGTA) “20 mM”, ethylenediaminetetraacetic acid (EDTA) “25 mM”, 1% (v/v) NP-40, and 1% (v/v) Triton X-100; pH 7.4] immediately supplemented with 1:450 protease and phosphatase inhibitors cocktail (Sigma-Aldrich). Caco-2 cells were immediately collected by cell scraper, sonicated, and centrifuged at 12,000 rpm for 15 min. Total proteins in the produced supernatant were determined colorimetrically using the Pierce™ 660 nm Assay (Thermo Scientific, Rockford, IL, USA). Equal amounts (30 µg) of protein were mixed with sodium dodecyl sulfate (SDS)-loading buffer containing Tris-HCl, dithiothreitol (DTT), SDS, glycerol, and Bromophenol blue. The protein samples were then denatured by boiling for 5 min, allowed to cool on ice for 10 min and separated by SDS-polyacrylamide gel electrophoresis (Cleaver Scientific Ltd., Rugby, Warwickshire, UK), and transferred onto Polyvinylidene Difluoride (PVDF) membranes for 30 min using Trans-Blot® SD semi-dry transfer cell (Biorad). Membranes were then blocked with 5% (w/v) blotting-grade dry milk (Biorad) in Tris-buffered saline-Tween-20 (TBS-T), washed and incubated with antibodies against Bax, Bcl-2, cleaved caspase-3 (1:100–1:2000, Cell Signaling Technology), cytochrome c (1:500, Santa Cruz Biotechnology), p53 (1:1500, Abcam) and β-actin (1:2500, Sigma-Aldrich) for 16–17 h at 4 °C in a humidified chamber. The blots were washed, incubated at RT with matched horseradish peroxidase (HRP)-linked secondary antibodies (Dako, Denmark) for 1.5 h, and the bands were visualized with chemiluminescence Western Lightning ECL (Perkin Elmer, Waltham, MA) for 1 min in Chemi-Doc imager (Biorad, Hercules, CA, USA) and finally analyzed with Bio-Rad Image Lab software with normalization to β-actin.

[4] = test system: RAI2; assay: Gene expression analysis (qPCR) in Caco-2 cells; details: Caco-2, IC50, 24 h, relative to 0.1% DMSO control
Method: (§1) Sensitive cancer cell line (Caco-2) was used for gene expression analysis of different genes controlling differentiation, apoptosis, tumor resistance, aggressiveness, and metastasis. […] After incubation, cells were harvested, and the total RNA was purified using Favor-Prep^TM Blood/Cultured cell total RNA purification mini kit (Favorgen Biotech Corp., Ping-Tung, Taiwan). RNA was reverse transcribed into the first-strand cDNA using Revert Aid First Strand cDNA Synthesis Kit (Thermo Scientific, Waltham, MA, USA). HERA^PLUS SYBR® Green qPCR Kit (Willowfort, Nottingham, UK) was utilized in quantitative polymerase chain reactions (qPCR). Gene expression was analyzed and quantified using the 2ˆ^−ΔΔCT method.

[5] = test system: RAR-γ; assay: Gene expression analysis (qPCR) in Caco-2 cells; details: Caco-2, IC50, 24 h, relative to 0.1% DMSO control, normalized to GAPDH
Method: as §1

[6] = test system: E-cadherin; assay: Gene expression analysis (qPCR) in Caco-2 cells; details: Caco-2, IC50, 24 h, relative to 0.1% DMSO control
Method: as §1

[7] = test system: RAR-α; assay: Gene expression analysis (qPCR) in Caco-2 cells; details: Caco-2, IC50, 24 h, relative to 0.1% DMSO control, normalized to GAPDH
Method: as §1

[8] = test system: Caspase-8 (Cas-8); assay: Gene expression analysis (qPCR) in Caco-2 cells; details: Caco-2, IC50, 24 h, relative to 0.1% DMSO control
Method: as §1

[9] = test system: WRN; assay: Gene expression analysis (qPCR) in Caco-2 cells; details: Caco-2, IC50, 24 h, relative to 0.1% DMSO control
Method: as §1

[10] = test system: cytochrome-C (Cyt-C); assay: Gene expression analysis (qPCR) in Caco-2 cells; details: Caco-2, IC50, 24 h, relative to 0.1% DMSO control
Method: as §1

[11] = test system: p53; assay: Gene expression analysis (qPCR) in Caco-2 cells; details: Caco-2, IC50, 24 h, relative to 0.1% DMSO control
Method: as §1

[12] = test system: Caspase-3 (Cas-3); assay: Gene expression analysis (qPCR) in Caco-2 cells; details: Caco-2, IC50, 24 h, relative to 0.1% DMSO control
Method: as §1

[13] = test system: RAR-β; assay: Gene expression analysis (qPCR) in Caco-2 cells; details: Caco-2, IC50, 24 h, relative to 0.1% DMSO control, normalized to GAPDH
Method: as §1

[14] = test system: Bax; assay: Gene expression analysis (qPCR) in Caco-2 cells; details: Caco-2, IC50, 24 h, relative to 0.1% DMSO control
Method: as §1

Row | SMILES | % early apoptotic cells (C+−) ([1]; 12 h treatment) | % late apoptotic cells (C−+) ([1]; 12 h treatment) | % necrotic cells (C++) ([1]; 12 h treatment) | % viable cells (C−−) ([1]; 12 h treatment) | % early apoptotic cells (C+−) ([1]; 24 h treatment) | % late apoptotic cells (C−+) ([1]; 24 h treatment) | % necrotic cells (C++) ([1]; 24 h treatment) | % viable cells (C−−) ([1]; 24 h treatment) | % G0-G1 ([2]; 12 h treatment) | % G2M ([2]; 12 h treatment) | % S ([2]; 12 h treatment) | % SubG0-G1 ([2]; 12 h treatment) | %G2M/G0-G1 ([2]; 12 h treatment) | % G0-G1 ([2]; 24 h treatment) | % G2M ([2]; 24 h treatment) | % S ([2]; 24 h treatment) | % SubG0-G1 ([2]; 24 h treatment) | %G2M/G0-G1 ([2]; 24 h treatment) | activated (cleaved) Cas-3 protein level [3] | % Apoptotic index (AI) ([1]; 12 h treatment) | also measured
1 | CC1=C(/C=C/C(C)=C/C=C/C(C)=C/C(=O)O)C(C)(C)CCC1 [ATRA, All-trans retinoic acid, reference compound] | 11.99 ± 1.9% | 0.00% | 0.01% | 87.99 ± 15.0% | 47.4 ± 2.5 % | 0.0% | 0.28± 0.17% | 52.4 ± 11.5 % | 26.1 ± 3.6% | 16.3 ± 1.9 % | 57.5 ± 8.1 % | 0.14 ± 0.1% | 62.5 ± 8.8 % | 37.1 ± 4.5% | 31.8 ± 4.8 % | 29.5 ± 3.5% | 1.6 ± 0.19 % | 85.7 ± 16.3 % | increment in the level of activated Cas-3 |  | 
2 | CC1(C)CCC(C)(C)c2cc(C#Cc3cccc(C(=O)O)c3)ccc21 [EC19, 3-(5,5,8,8-tetramethyl-5,6,7,8-tetrahydronaphthalen-2-ylethynyl) benzoic acid] | 6.30 ± 1.1% | 0.01% | 0.4 ± 0.1% | 93.65 ± 14.0% | 75.3 ± 13.8 % | 0.0% | 0.18 ± 0.05% | 24.5 ± 11.8 % | 39.1 ± 6.7% | 9.1 ± 1.3 % | 51.5 ± 7.2 % | 0.29 ± 0.1% | 23.4 ± 2.8 % | 29.0 ± 4.1% | 22.5 ± 3.1 % | 44.0 ± 8.2 % | 4.5 ± 0.6 % | 77.6 ± 10.8 % | increment in the level of activated Cas-3 | 6.3% | RAI2 gene expression, fold change [4]: 4.4 fold; RAR-γ gene expression, fold increase [5]: without affecting; E-cadherin gene expression, fold change [6]: 54 fold; RAR-α gene expression, fold increase [7]: 2.6 fold; Cas-8 gene expression, fold change [8]: 7.1 fold; WRN gene expression, fold change [9]: ~ 40 fold; Cyt-C gene expression, fold change [10]: 3.6 fold; p53 gene expression, fold change [11]: 1.2 fold; Cas-3 gene expression, fold change [12]: 8.6 fold; RAR-β gene expression, fold increase [13]: 131 fold; Bax gene expression, fold change [14]: 1.9 fold
3 | CC1(C)CCC(C)(C)c2cc(C#Cc3ccc(C(=O)O)cc3)ccc21 [EC23, 4-(5,5,8,8-tetramethyl-5,6,7,8-tetrahydronaphthalen-2-ylethynyl) benzoic acid] | 8.34 ± 1.1% | 0.01% | 0.05% | 91.61 ± 13.7% | 65.4 ± 18.4 % | 0.0% | 0.16 ± 0.14% | 34.4 ± 18.3 % | 58.7 ± 8.2% | 6.8 ± 0.8 % | 34.0 ± 4.1% | 0.46 ± 0.1% | 11.6 ± 1.7 % | 32.7 ± 4.6% | 15.8 ± 1.9 % | 47.6 ± 9.1 % | 3.9 ± 0.43 % | 48.3 ± 6.8 % |  | 8.3% | RAI2 gene expression, fold change [4]: 1.6 fold; RAR-γ gene expression, fold increase [5]: 2.3 fold; E-cadherin gene expression, fold change [6]: 16.3 fold; RAR-α gene expression, fold increase [7]: no effect; Cas-8 gene expression, fold change [8]: did not induce significant expression; WRN gene expression, fold change [9]: ~ 40 fold; Cyt-C gene expression, fold change [10]: 2.8 fold; p53 gene expression, fold change [11]: did not induce p53 upregulation; Cas-3 gene expression, fold change [12]: did not induce significant expression; RAR-β gene expression, fold increase [13]: no effect; Bax gene expression, fold change [14]: not able to induce any significant change
